Reference: article PMC6982951, “The N’-Substituted Derivatives of 5-Chloro-3-Methylisothiazole-4-Carboxylic Acid Hydrazide with Antiproliferative Activity” (Molecules, 2019)
“And” between values parts separate entries of the source, which are not always exact repeats. Equal entries are not always repeated. “Also recorded” adds a separate entry of the source. Where two headings read alike, the source gives them in different places.

What was measured:
[1] = tested on: MV4-11 (human biphenotypic B cell myelomonocytic leukemia); experiment: MTT antiproliferative assay, 72 h exposure; assay type: cell-based; conditions: for IC50 / IC50 ± SD: MV4-11, MTT, 72 h, n.a. = no activity in a concentration of 1–80 μg/mL; for antiproliferative activity (in words): MV4-11 leukemia cells; for inhibition at 80 µg/mL: MV4-11, compound concentration 80 μg/mL, read-out: inhibition of cell proliferation
Excerpt: (§1) Established in vitro, human cell lines MV4-11 (human biphenotypic B myelomonocytic leukemia), MCF-7 (breast cancer), LoVo (colon cancer), LoVo/DX (colon cancer drug resistant), and MCF-10A (normal breast epithelial) were used. The lines were obtained from the American Type Culture Collection (lines MV4-11, LoVo, LoVo/DX, MCF-10A; Rockville, MD, USA) or from the European Collection of Authenticated Cell Cultures (line MCF-7) and are being maintained at the Hirszfeld Institute of Immunology and Experimental Therapy PAS, Wroclaw, Poland.
(§2) MV4-11 cells were cultured in the RPMI 1640 medium (HIIET PAS, Poland) supplemented with 1.0 mM sodium pyruvate, 2 mM L-glutamine and 10% FBS (all from Sigma Aldrich, Steinheim, Germany), LoVo cells were cultured in the F-12K medium (Life Technologies, Carlsbad, CA, United States) supplemented with 10% FBS (GE Healthcare, Chicago, IL, USA), and LoVo/DX cells were cultured in the mixture of RPMI 1640+OptiMEM (1:1) medium (HIIET PAS) supplemented with 5% FBS (GE Healthcare, Chicago, IL, USA), 2 mM L-glutamine, 1.0 mM sodium pyruvate (all from Sigma Aldrich, Steinheim, Germany) and 0.1 µg/mL doxorubicin chloride (Accord).
(§3) Test solutions of the compounds tested (50 mM) were prepared by dissolving the substances in DMSO (Sigma Aldrich). Afterwards, the tested compounds were diluted in a culture medium to reach the final concentrations at the range of 1-80 μg/mL (250, 125, 25 and 5 μM).
(§4) Twenty-four hours prior to the addition of the tested compounds, the cells were plated in 96-well plates (Sarstedt, Germany) at a density of 1 × 10^4 or 0.75 × 10^4 (MCF-7) cells per well. The assay was performed after 72 h of exposure to varying concentrations of the tested agents. The in vitro cytotoxic effect of all agents was examined using the MTT (MV4-11) or SRB assay. The results were calculated as IC50 (inhibitory concentration 50%) the concentration of tested agent, which is cytotoxic for 50% of the cancer cells. Each compound in each concentration was tested in triplicate in a single experiment, which was repeated 3–4 times.
This technique was applied for cells growing in suspension culture. An assay was performed after 72 h exposure to varying concentrations of the tested agents. For the last 4 h of incubation, 20 µL of MTT solution was added to each well (MTT: 3-(4,5-dimethylthiazol-2-yl)-2,5-diphenyl tetrazolium bromide; stock solution: 5 mg/mL, Sigma Aldrich). When the incubation time was completed, 80 µL of the lysing mixture was added to each well (lysing mixture: 225 mL dimethylformamide, POCh, Gliwice, Poland, 67.5 g sodium dodecyl sulfate, Sigma Aldrich, and 275 mL of distilled water). After 24 h, when formazan crystals had been dissolved, the optical densities of the samples were read on Synergy H4 photometer (BioTek Instruments, USA) at 570 nm wavelength. The background optical density was measured in the wells filled with culture medium, without the cells.

[2] = tested on: MCF-7 (breast adenocarcinoma); experiment: SRB antiproliferative assay, 72 h exposure; assay type: cell-based, human; conditions: MCF-7, SRB; for IC50: read-out: IC50 ± SD MCF-7
Excerpt: as §1
(§5) MCF-7 cells were cultured in the Eagle’s medium (HIIET PAS, Poland) supplemented with 10% FBS, 8 µg/mL insulin, 2 mM L-glutamine and 1% MEM-non essential amino acid solution 100X (all from Sigma Aldrich, Steinheim, Germany). MCF-10A cells were cultured in the HAM’S F-12 with L-glutamine medium (Corning) supplemented with 10% Hors Serum (Gibco), 10 µg/mL insulin, 0.5 µg/mL hydrocortisone, 20 ng/mL EGFh and 0.05 mg/mL Cholera Toxin from Vibrio cholerae (all from Sigma Aldrich, Steinheim, Germany). All culture mediums were supplemented with 100 units/mL penicillin (Polfa Tarchomin S.A. Poland), and 100 µg/mL streptomycin (Sigma Aldrich). All cell lines were grown at 37 °C with 5% CO2 humidified atmosphere.
as §3, §4
(§6) This technique was applied for the cytotoxicity screening against cells growing in adherent culture. The details of this technique were described by Skehan et. al.. The cytotoxicity assay was performed after 72 h exposure of the cultured cells to varying concentrations of the tested agents. The cells attached to the plastic were fixed by gently layering cold 50% TCA (trichloroacetic acid, Sigma Aldrich) on the top of the culture medium in each well. The plates were incubated at 4 °C for 1 h and then washed five times with tap water. The cellular material fixed with TCA was stained with 0.1% sulforhodamine B (SRB, Sigma Aldrich) dissolved in 1% acetic acid (POCh) for 30 min. Unbound dye was removed by rinsing (4×) with 1% acetic acid. The protein-bound dye was extracted with 10 mM unbuffered Tris base (Sigma Aldrich) for determination of optical density (at 540 nm) on Synergy H4 photometer (BioTek Instruments). The background optical density was measured in the wells filled with culture medium, without the cells.

[3] = tested on: MCF-10A (normal non-tumorigenic epithelial cell line derived from mammary gland); experiment: SRB cytotoxicity assay, 72 h exposure; assay type: cell-based, human; conditions: for IC50: read-out: IC50 ± SD MCF-10A; for cytotoxicity against normal MCF-10A cells relative to cancer MCF-7 cells: MCF-10A versus MCF-7
Excerpt: as §1, §5, §3, §4, §6

[4] = tested on: LoVo (human colon adenocarcinoma, sensitive); experiment: SRB antiproliferative assay, 72 h exposure; assay type: cell-based; conditions: for IC50: read-out: IC50 ± SD LoVo
Excerpt: as §1, §2, §3, §4, §6

[5] = tested on: LoVo/DX (human colon adenocarcinoma, resistant to doxorubicin); experiment: SRB antiproliferative assay, 72 h exposure; resistance index; assay type: cell-based; conditions: for RI (resistance index): IC50 against LoVo/DX divided by IC50 against LoVo; for IC50 ± SD LoVoDX / IC50: LoVo/DX, SRB, 72 h; for IC50: read-out: IC50 ± SD LoVoDX
Excerpt: as §1, §2, §3, §4
The resistance indexes (RI) were calculated by dividing the IC50 values of the compounds tested against the cells of drug resistant cell LoVo/DX line by respective values obtained against the cells of drug sensitive LoVo line (Table 2). According to Harker et al., three categories of the cells could be distinguished: (a) the cells are drug-sensitive if the ratio approaches 0–2; (b) the cells are moderately drug-resistant if the ratio ranges from 2 to 10; (c) the cells are markedly drug-resistant if the ratio is higher than 10.
as §6

[6] = MCF-10A normal cells, SRB, 72 h
[7] = Homo sapiens, MCF-10A normal cells, SRB, 72 h

Compound	IC50 ([1]; Homo sapiens, MV4-11, 72 h)	IC50 ([2]; Homo sapiens, MCF7, 72 h)	IC50 ([4]; Homo sapiens)	IC50 ([5]; Homo sapiens)	melting point	RI (resistance index) [5]	antiproliferative activity (in words) [1]	IC50 [3, 7]	further results
N.N.[Cl][Pt][Cl] [Cisplatin, reference compound]	–	–	–	–	–	0.49	–	–	IC50 [1]: 1.28 ± 0.45 µM; IC50 ± SD [1]: 0.38 ± 0.14 µg/mL; IC50 ± SD MCF-7 [2]: 1.56 ± 0.3 µg/mL; IC50 [2]: 5.2 ± 1 µM; IC50 ± SD MCF-10A [3, 6]: 2.9 ± 0.4 µg/mL; IC50 [3, 6]: 9.7 ± 1.4 µM; IC50 ± SD LoVo [4]: 1.7 ± 0.8 µg/mL; IC50 [4]: 5.6 ± 2.6 µM; IC50 ± SD LoVoDX [5]: 0.84 ± 0.17 µg/mL; IC50 [5]: 2.8 ± 0.6 µM
Cc1nsc(Cl)c1C(=O)O [Compound 1, 5-Chloro-3-methylisothiazole-4-carboxylic acid]	–	–	–	–	–	–	no antiproliferative activity; also recorded: devoid of any anticancer activity	–	–
Cc1nsc(Cl)c1C(=O)NN [Compound 2, 5-Chloro-3-Methylisothiazole-4-Carbohydrazide]	> 80 µg/mL	–	–	–	–	–	very poor activity; also recorded: devoid of any anticancer activity	–	inhibition at 80 µg/mL ([1]; Homo sapiens): 45%
CCc1ccc(/C=N/NC(=O)c2c(C)nsc2Cl)cc1 [Compound 6, 5-Chloro-N’-[(E)-(4-ethylphenyl)methylidene]-3-methylisothiazole-4-carbohydrazide]	21.3 µg/mL and 69.4 µM	13.9 µg/mL and 42.9 µM	31.7 µg/mL and 97.7 µM	28.8 µg/mL and 88.8 µM	152 to 154 °C	0.91	–	40.6 µg/mL and 125 µM	–
Cc1ccc(/C=N/NC(=O)c2c(C)nsc2Cl)c(C)c1 [Compound 9, 5-Chloro-N’-[(E)-(2,4-dimethylphenyl)methylidene]-3-methylisothiazole-4-carbohydrazide]	> 80 µg/mL	–	–	–	232 to 234 °C	–	very poor activity	–	inhibition at 80 µg/mL ([1]; Homo sapiens): 42.5%; cytotoxicity against normal MCF-10A cells relative to cancer MCF-7 cells [3]: about three times less cytotoxic

Now from value to molecule, other results behind:

IC50 ([1]; Homo sapiens, MV4-11, 72 h)	IC50 ([2]; Homo sapiens, MCF7, 72 h)	IC50 ([4]; Homo sapiens)	IC50 ([5]; Homo sapiens)	melting point	Compound	RI (resistance index) [5]	antiproliferative activity (in words) [1]	IC50 [3, 7]	further results
4.4 µg/mL and 14 µM	39.3 ± 6.3 µM	25 ± 5.5 µM	34.2 ± 2.3 µM	180 to 181 °C	Cc1nsc(Cl)c1C(=O)N/N=C/C=C/c1ccccc1 [Compound 3, 5-Chloro-N’-[(1E,2E)-3-phenylprop-2-en-1-ylidene]-3-methylisothiazole-4-carbohydrazide]	1.37	–	20.9 µg/mL and 68.6 µM	IC50 ± SD [1]: 4.3 ± 1.9 µg/mL; IC50 ± SD MCF-7 [2]: 12 ± 1.9 µg/mL; activity (IC50 value) towards MCF-10A normal cell line relative to cancer cells ([3]; MCF-10A versus cancer cells): almost two times lower activity; IC50 ± SD LoVo [4]: 7.64 ± 1.7 µg/mL; IC50 ± SD LoVoDX [5]: 10.4 ± 0.7 µg/mL
15.2 µg/mL and 48.4 µM	48.6 ± 5.7 µM	59.4 ± 3.4 µM	47.9 ± 3.7 µM	174 to 175 °C	Cc1nsc(Cl)c1C(=O)N/N=C/c1cccc(Cl)c1 [Compound 4, 5-Chloro-N’-[(E)-(3-chlorophenyl)methylidene]-3-methylisothiazole-4-carbohydrazide]	0.81	–	24.6 µg/mL and 78.5 µM	IC50 ± SD MCF-7 [2]: 15.2 ± 1.8 µg/mL; IC50 ± SD LoVo [4]: 18.6 ± 1.1 µg/mL; IC50 ± SD LoVoDX [5]: 15 ± 1.1 µg/mL
18.7 µg/mL and 57.7 µM	20.1 µg/mL and 65.1 µM	22.7 µg/mL and 73.4 µM	29.2 µg/mL and 94.6 µM	199 to 200 °C	Cc1nsc(Cl)c1C(=O)N/N=C/c1cccc([N+](=O)[O-])c1 [Compound 5, 5-Chloro-N’-[(E)-(3-nitrophenyl)methylidene]-3-methylisothiazole-4-carbohydrazide]	1.29	–	60.8 µg/mL and 197 µM	cytotoxicity against normal MCF-10A cells relative to cancer MCF-7 cells [3]: about three times less cytotoxic
22.4 µg/mL and 72.3 µM	17.8 µg/mL and 58 µM	27.8 µg/mL and 90.5 µM	20 µg/mL and 65 µM	139 to 140 °C	COc1cccc(/C=N/NC(=O)c2c(C)nsc2Cl)c1 [Compound 7, 5-Chloro-N’-[(E)-(3-methoxyphenyl)methylidene]-3-methylisothiazole-4-carbohydrazide]	0.72	–	56 µg/mL and 182 µM	antiproliferative activity relative to phenyl derivative 8 ([1]; fold higher than compound 8): 1.5–2 times
36.6 µg/mL and 131 µM	–	–	–	164 to 165 °C	Cc1nsc(Cl)c1C(=O)N/N=C/c1ccccc1 [Compound 8, 5-Chloro-N’-[(E)-phenylmethylidene]-3-methylisothiazole-4-carbohydrazide]	–	–	–	cytotoxicity against normal MCF-10A cells relative to cancer MCF-7 cells [3]: about three times less cytotoxic
> 80 µg/mL	–	–	–	226 to 228 °C	Cc1ccccc1/C=N/NC(=O)c1c(C)nsc1Cl [Compound 10, 5-Chloro-N’-[(E)-(2-methylphenyl)methylidene]-3-methylisothiazole-4-carbohydrazide]	–	very poor activity	–	inhibition at 80 µg/mL ([1]; Homo sapiens): 47%
–	–	–	–	232 to 233 °C	Cc1nsc(Cl)c1C(=O)N/N=C/c1ccccc1Cl [Compound 11, 5-Chloro-N’-[(E)-(2-chlorophenyl)methylidene]-3-methylisothiazole-4-carbohydrazide]	–	no antiproliferative activity	–	–
